Assay results as given in publication PMC4595804, “A strategy to discover decoy chemokine ligands with an anti-inflammatory activity” (Scientific Reports, 2015).
Like-named read-outs stand apart in the source and are kept apart here.

Experiments:
Assay type in all cases: cell-based
CCL17 = target: T1, CCL17 (Homo sapiens, UniProt Q92583); test: TRIC-r calcium assay, neutraligand protocol: compound preincubated with CCL17, EGFP-CCR4+Gqi5+ HEK cells
T1 construct: codes for the mature CCL17 or CCL22 with an N-terminal thioredoxin-hexahistidin (TRX- (His)6) tag; thioredoxin (TRX) (N, cleaved yes); (His)6 (N, cleaved yes); made in house; host or cells: E. coli BL21 (DE3)
T1 sequence (Q92583 24-94): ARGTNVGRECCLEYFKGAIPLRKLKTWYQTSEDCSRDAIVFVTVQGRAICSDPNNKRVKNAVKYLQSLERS
Protocol: EGFP-CCR4^+Gqi5^+HEKcells were loaded with fluorescent Ca^2+-indicator Indo-1 AM (5μM, Interchim) for 45 min at 37 °C. […] Cells (100,000 cells/well, 100μl) were seeded in black clear bottom 96-well plates (Greiner), and centrifuged at 250 × g for 5 min.
Two plates (96-well plates, Greiner) were prepared for the screen: one containing test compounds alone in order to determine their direct agonistic activity, and another one containing test compounds mixed with CCL17 or CCL22 at room temperature for 1 h (neutraligand protocol). The chemokines and test compounds were prepared at a 3× concentration, while digitonin was prepared at a 4× concentration. The CCR4 antagonist, C-021 served as control in the experiment. In the antagonist protocol, compounds were added to the cell plate (one compound per well) and incubated with cells for 30 min at room temperature, while the agonist (CCL17 or CCL22) was added to the ligand plate only.
Dye loaded cells were placed in the FlexStation 3 (Molecular Devices). […] For the primary screening, the ligands (50μl of chemokine mixed with DMSO or test compounds) were added to the cells at 40 s, followed by digitonin addition (50μl) at 100 s to the cells. Molecules were screened at a final concentration of 2μg/ml with 5 nM CCL17 or CCL22. […] The calcium response values (height of peak response over baseline) were determined. Hits were selected by comparing the response amplitude at the time of the chemokine addition ± test compound. The Z’ factor[29] was calculated according to the following equation: Z’ = 1-(3SD+ + 3SD−)/|Ave+ − Ave−|, where SD+ and Ave+ are respectively the standard deviation and the mean value of the positive controls (chemokine + DMSO), while SD− and Ave− are respectively the standard deviation and the mean value of the negative controls (HEPES-BSA (0.1%) mixed with DMSO, or cells mixed with C-021). Hit molecules were confirmed by performing concentration-response curves and their half maximal inhibitory concentration (IC50) values were calculated using the Kaleidagraph software.

CXCL8 = CXCL8 (Homo sapiens, UniProt P10145); test: Selectivity, neutraligand protocol, EGFP-CXCR2+ HEK cells; details: 10 μM compound, 5 nM CXCL8, EGFP-CXCR2+ HEK cells
Sequence of CXCL8 (P10145 28-99 limits assumed): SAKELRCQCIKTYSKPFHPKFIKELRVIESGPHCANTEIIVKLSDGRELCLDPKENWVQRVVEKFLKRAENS
Protocol: Figure 6 (a) Selectivity of CCL17 and CCL22 neutraligands towards 10 chemokines according to the “neutraligand protocol”. […] Each column represents the mean (block) ± SD (bars) of n = 3 experiments performed in triplicate. *p < 0.05; **p < 0.01; ***p < 0.005 as compared to chemokine + DMSO. (b) Chemokine neutraligands inhibited CCR4 endocytosis induced by CCL22 or CCL17. EGFP-CCR4^+ HEK cells were incubated for 30 min with DMSO or chemokine (100 nM CCL22 or CCL17) in the presence or absence of test compounds. […] Cell surface EGFP-tagged CCR4 receptors were measured by EGFP antibody labeling and flow cytometry analysis. CCR4 internalization was expressed as a percentage of total receptor surface expression calculated using control cells incubated with DMSO (100%). […] The number of migrating cells in the presence of chemokine and compounds were expressed as the corresponding percentages. Results were analyzed by fitting the experimental curves (% of migrating cells vs log compound concentration) using the Kaleidagraph software program, and the corresponding IC50 values were calculated. […]
Dye loaded cells were placed in the FlexStation 3 (Molecular Devices). Calcium mobilization was measured at 401 and 475 nm emission fluorescence after excitation at 355 nm. […] Raw fluorescence data (at 401 and 475 nm) were exported and the ratio 401/475 was calculated. […]

CCL22 R80N = target: T2, CCL22 R80N (Homo sapiens, UniProt O00626, R80N); test: Calcium responses induced by chemokine mutant, neutraligand protocol; details: 10 μM compound, 5 nM chemokine; remaining response
T2 construct: codes for the mature CCL17 or CCL22 with an N-terminal thioredoxin-hexahistidin (TRX- (His)6) tag; TRX-(His)6 (N, cleaved yes); made in house; host or cells: E. coli BL21 (DE3)
T2 sequence (O00626 25-93 R80N): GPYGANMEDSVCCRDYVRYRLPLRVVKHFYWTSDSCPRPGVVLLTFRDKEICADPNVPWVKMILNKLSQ
Protocol: Dye loaded cells were placed in the FlexStation 3 (Molecular Devices). Calcium mobilization was measured at 401 and 475 nm emission fluorescence after excitation at 355 nm. For the primary screening, the ligands (50μl of chemokine mixed with DMSO or test compounds) were added to the cells at 40 s, followed by digitonin addition (50μl) at 100 s to the cells. Molecules were screened at a final concentration of 2μg/ml with 5 nM CCL17 or CCL22. […] Raw fluorescence data (at 401 and 475 nm) were exported and the ratio 401/475 was calculated. The calcium response values (height of peak response over baseline) were determined. Hits were selected by comparing the response amplitude at the time of the chemokine addition ± test compound. The Z’ factor[29] was calculated according to the following equation: Z’ = 1-(3SD+ + 3SD−)/|Ave+ − Ave−|, where SD+ and Ave+ are respectively the standard deviation and the mean value of the positive controls (chemokine + DMSO), while SD− and Ave− are respectively the standard deviation and the mean value of the negative controls (HEPES-BSA (0.1%) mixed with DMSO, or cells mixed with C-021). Hit molecules were confirmed by performing concentration-response curves and their half maximal inhibitory concentration (IC50) values were calculated using the Kaleidagraph software.
and the denaturated chemokines (disulfite bonds reduced by β-mercaptoethanol). The
chemokine activity was then, tested in the in vitro assays. […]

SMILES	calcium response induced by WT CCL17 preincubated with compound (CCL17; 10 μM compound, 5 nM chemokine, remaining response) [%]	inhibition at 5 µM (CCL17; HEK293, read-out: Inhibition of CCL17 calcium responses (%)) [%]	inhibition at 10 µM (CCL17; HEK293, read-out: inhibition of CCL17-evoked calcium responses (selectivity)) [%]	inhibition at 2 µg/mL (CCL17; HEK293, read-out: inhibition of CCL17-induced calcium responses (primary screen)) [%]	effect on calcium responses induced by CXCL8 (CXCL8)	calcium response induced by CCL22 R80N preincubated with compound (CCL22 R80N)	inhibition of CCL17-evoked calcium responses (selectivity) (CCL17; 10 μM compound, 5 nM CCL17, EGFP-CCR4+ HEK cells)	inhibition at 5 µM (CCL17; HEK293, compound 5 µM, read-out: Inhibition of CCL17 calcium responses (%)) [%]
CC(C)=CCn1cnc2c1c(=O)n(C)c(=O)n2C [GPN279, 1,3-dimethyl-7-(3-methylbut-2-enyl)-1H-purine-2,6(3H, 7H)-dione]	56.0 ± 5.0	42 ± 4	40	42	no effect	neither inhibited WT nor CCL22 mutants		
O=C(OCC(O)CO)c1ccccc1O (stereo not shown) [GPN136, 2,3-dihydroxypropyl 2-hydroxybenzoate]					no effect	100.0 ± 3.0%	no effect	0
